# Source: patent US8343959B2, “N-phenyl-(piperazinyl or homopiperazinyl)-benzenesulfonamide or benzenesulfonyl-phenyl-(piperazine or homopiperazine) compounds suitable for treating disorders that respond to modulation of the serotonin 5-HT6 receptor” (Abbott GmbH & Co. KG, priority 2009, dated 2013)
# Structures can show the parent of a compound that is named as a salt.
# Biological target: T1, h-5-HT6 receptor (Homo sapiens, UniProt P50406)
# T1 construct: expressed in transfected cells
# Experiment: 5-HT6 receptor binding assay (displacement of [3H]-LSD)
# Details: membranes of HEK293 cells expressing h-5-HT6 receptor, 1 nM [3H]-LSD; read-out: Ki (5HT6)
# Method: Displacement of Radioligands Binding to The Following Cloned Human Receptors
# Cells from stable clonal cell lines expressing the corresponding receptor (5-HT6, α1-adrenergic, dopamine D2 or histamine H1 receptors) were washed with PBS (w/o Ca^++, Mg^++) and harvested in PBS with 0.02% EDTA. The cells were collected by centrifugation at 500 g for 10 min. at 4° C., washed with PBS and centrifuged (500 g, 10 min. 4° C.). The pellets were stored at −80° C. until use. For membrane preparation, the thawed cell pellet was resuspended in ice-cold sucrose buffer (0.25 M sucrose, 10 mM Hepes (pH 7.4), 1 mM Phenylmethylsulfonyl fluoride (PMSF) in DMSO, 5 μg/ml Pepstatin-A, 3 mM EDTA, 0.025% Bacitracin) and homogenized with a Branson Sonifier W-250 (Settings: Timer 4; Output Control 3; Duty Cycle constant; 2 to 3 cycles). Cell disruption was checked with the aid of a microscope. Remaining unbroken cells were pelleted at 1.000 g for 10 min. at 4° C. The sucrose buffer supernatant was then centrifuged at 60.000 g for 1 h at 4° C. (Beckman Ultrazentrifuge XL 80). The pellet was resuspended in 30 ml ice-cold Tris buffer (20 mM TRIS (pH 7.4), 5 μg/ml Pepstatin A, 0.1 mM PMSF, 3 mM EDTA) by pipetting through a 10 ml serological pipet and centrifuged for 1 h at 4° C. at 60.000 g. A final resuspension was performed in a small volume of ice-cold Tris buffer (see above) by pressing through a serological pipet followed by ultrasonic treatment with a Branson Sonifier W-250 (Settings: Timer 1; Output Control 3; Duty Cycle constant; 1 cycle). Protein concentration was determined (BCA-Kit; Pierce) and aliquots stored at −80° C. or in liquid nitrogen for long-term storage.
# All receptor binding experiments were carried out in the corresponding assay buffer in a total volume of 200 μl in the presence of various concentrations of test compound (10^−5 M to 10^−9 M, tenfold serial dilution, duplicate determinations). The assays were terminated by filtration on polyethylenimine (PEI 0.1% or 0.3%) presoaked Packard Unifilter Plates (GF/C or GF/B) with a Tomtec Machin U 96 well-plate harvester. After the plates had been dried for 2 h at 55° C. in a drying chamber scintillation cocktail (BetaPlate Scint; PerkinElmer) was added. Radioactivity was measured in a Microbeta Trilux two hours after the addition of the scintillation mixture. Data derived from liquid scintillation counting were analysed by iterative non-linear regression analysis with the use of the Statistical Analysis System (SAS): a program similar to “LIGAND” as described by Munson and Rodbard (Analytical Biochemistry 107, 220-239 (1980).
# HEK293 cells stably expressing the h-5-HT6 receptor (NCBI Reference Sequence XM 001435) were cultured in RPMI1640 medium supplemented with 25 mM HEPES, 10% fetal calf serum and 1-2 mM glutamine. The membrane preparation was performed as described in section 1. […] Non-specific binding was defined with 1 μM methiothepin. The binding reaction was carried out for 3.5 h at room temperature. During the incubation, the plates were shaken on a plate shaker at 100 rpm and terminated by filtration on Packard Unifilter GF/C (0.1% PEI) plates, followed by 2 wash cycles with ice-cold 50 mM Tris-HCl, 5 mM CaCl2.
# Data derived from liquid scintillation counting were analyzed by iterative non-linear regression analysis with the use of the Statistical Analysis System (SAS): a program similar to “LIGAND” as described by Munson and Rodbard (Anal. Biochem. 1980, 107, 220-239). Fitting was performed according to formulae described by Feldman (Anal. Biochem. 1972, 48, 317-338). IC50, nH and Ki values were expressed as geometrical mean.
# T1 sequence (P50406 whole entry): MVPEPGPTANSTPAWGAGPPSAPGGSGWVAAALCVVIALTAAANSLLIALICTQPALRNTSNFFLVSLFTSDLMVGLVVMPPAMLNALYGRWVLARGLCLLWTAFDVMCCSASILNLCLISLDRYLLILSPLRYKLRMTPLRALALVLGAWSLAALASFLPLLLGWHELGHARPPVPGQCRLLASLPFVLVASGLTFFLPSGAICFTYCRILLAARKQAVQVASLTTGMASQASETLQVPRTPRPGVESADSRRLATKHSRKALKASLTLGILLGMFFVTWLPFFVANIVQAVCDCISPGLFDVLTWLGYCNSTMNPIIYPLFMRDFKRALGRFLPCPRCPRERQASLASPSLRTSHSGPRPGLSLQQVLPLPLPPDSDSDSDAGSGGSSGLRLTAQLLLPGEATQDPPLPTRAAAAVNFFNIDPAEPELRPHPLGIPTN
row,SMILES,Ki
1,"O=S(=O)(Nc1cccc(OC(F)F)c1)c1cccc(N2CCNCC2)c1 [Example 68, N-(3-Difluoromethoxy-phenyl)-3-piperazin-1-yl-benzenesulfonamide hydrochloride]",< 0.01 µM
2,"CCCN(c1cccc(OC(F)F)c1)S(=O)(=O)c1ccc(C)c(N2CCNCC2)c1 [Example 12, N-(3-Difluoromethoxy-phenyl)-4-methyl-3-piperazin-1-yl-N-propyl-benzenesulfonamide hydrochloride]",< 0.05 µM
3,"COc1ccc(S(=O)(=O)N(C)c2ccccc2OC(F)F)cc1N1CCNCC1 [Example 27, N-(2-Difluoromethoxy-phenyl)-4-methoxy-N-methyl-3-piperazin-1-yl-benzenesulfonamide hydrochloride]",< 0.05 µM
4,"COc1ccc(S(=O)(=O)Nc2cccc(OC(F)F)c2)cc1N1CCN(C)CC1 [Example 35, N-(3-Difluoromethoxy-phenyl)-4-methoxy-3-(4-methyl-piperazin-1-yl)-benzenesulfonamide hydrochloride]",< 0.01 µM
5,"Cc1ccc(S(=O)(=O)N(C)c2cccc(OC(F)F)c2)cc1N1CCNCC1 [Example 14, N-(3-Difluoromethoxy-phenyl)-4,N-dimethyl-3-piperazin-1-yl-benzenesulfonamide hydrochloride]",< 0.1 µM
6,"CCN(c1cccc(OC(F)F)c1)S(=O)(=O)c1ccc(C)c(N2CCNCC2)c1 [Example 13, N-(3-Difluoromethoxy-phenyl)-N-ethyl-4-methyl-3-piperazin-1-yl-benzene sulfonamide hydrochloride]",< 0.05 µM
7,"Cc1ccc(S(=O)(=O)Nc2cccc(OC(F)F)c2)cc1N1CCCNCC1 [Example 96, 3-[1,4]Diazepan-1-yl-N-(3-difluoromethoxy-phenyl)-4-methyl-benzenesulfonamide hydrochloride]",< 0.05 µM
8,"Cc1ccc(S(=O)(=O)Nc2cc(Cl)ccc2OC(F)F)cc1N1CCN(C)CC1 [Example 56, N-(5-Chloro-2-difluoromethoxy-phenyl)-4-methyl-3-(4-methyl-piperazin-1-yl)-benzenesulfonamide hydrochloride]",< 0.05 µM
9,"COc1ccc(S(=O)(=O)Nc2ccc(C)cc2OC(F)F)cc1N1CCNCC1 [Example 73, N-(2-Difluoromethoxy-4-methyl-phenyl)-4-methoxy-3-piperazin-1-yl-benzenesulfonamide hydrochloride]",< 0.01 µM
10,"COc1ccc(S(=O)(=O)Nc2ccc(F)cc2OC(F)F)cc1N1CCNCC1 [Example 82, N-(2-Difluoromethoxy-4-fluoro-phenyl)-4-methoxy-3-piperazin-1-yl-benzenesulfonamide hydrochloride]",< 0.01 µM
11,"COc1ccc(S(=O)(=O)Nc2ccc3c(c2)OC(F)(F)O3)cc1N1CCN(C)CC1 [Example 66, N-(2,2-Difluoro-benzo[1,3]dioxol-5-yl)-4-methoxy-3-(4-methyl-piperazin-1-yl)-benzenesulfonamide hydrochloride]",< 0.01 µM
12,"Cc1ccc(S(=O)(=O)N(CC2CC2)c2cccc(OC(F)F)c2)cc1N1CCNCC1 [Example 10, N-Cyclopropylmethyl-N-(3-difluoromethoxy-phenyl)-4-methyl-3-piperazin-1-yl-benzenesulfonamide hydrochloride]",< 0.05 µM
13,"CCCN(c1ccccc1OC(F)F)S(=O)(=O)c1ccc(C)c(N2CCNCC2)c1 [Example 11, N-(2-Difluoromethoxy-phenyl)-4-methyl-3-piperazin-1-yl-N-propyl-benzene-sulfonamide hydrochloride]",< 0.5 µM
14,"Cc1ccc(NS(=O)(=O)c2ccc(C)c(N3CCN(C)CC3)c2)cc1OC(F)F [Example 75, N-(3-Difluoromethoxy-4-methyl-phenyl)-4-methyl-3-(4-methyl-piperazin-1-yl)-benzenesulfonamide hydrochloride]",< 0.05 µM
15,"COc1ccc(S(=O)(=O)Nc2ccc(OC(F)F)cc2)cc1N1CCN(C)CC1 [Example 95, N-(4-Difluoromethoxy-phenyl)-4-methoxy-3-(4-methyl-piperazin-1-yl)-benzenesulfonamide hydrochloride]",< 0.01 µM
16,"CN(c1ccccc1OC(F)F)S(=O)(=O)c1cccc(N2CCNCC2)c1 [Example 43, N-(2-Difluoromethoxy-phenyl)-N-methyl-3-piperazin-1-yl-benzenesulfonamide hydrochloride]",< 0.5 µM
17,"CCOc1ccc(S(=O)(=O)Nc2ccc(C)cc2OC(F)F)cc1N1CCNCC1 [Example 106, N-(2-Difluoromethoxy-4-methylphenyl)-4-ethoxy-3-piperazin-1-yl benzenesulfonamide]",< 0.01 µM
18,"COc1ccc(NS(=O)(=O)c2ccc(C)c(N3CCNCC3)c2)cc1OC(F)F [Example 85, N-(3-Difluoromethoxy-4-methoxy-phenyl)-4-methyl-3-piperazin-1-yl-benzenesulfonamide hydrochloride]",< 0.5 µM
19,"O=S(=O)(c1cccc(OC(F)F)c1)c1cccc(N2CCNCC2)c1 [Example 45, 1-[3-(3-Difluoromethoxy-benzenesulfonyl)-phenyl]-piperazine hydrochloride]",< 0.01 µM
20,"Cc1ccc(OC(F)F)c(NS(=O)(=O)c2ccc(C)c(N3CCN[C@@H](C)C3)c2)c1 [Example 64, N-(2-Difluoromethoxy-5-methyl-phenyl)-4-methyl-3-((S)-3-methyl-piperazin-1-yl)-benzenesulfonamide hydrochloride]",< 0.01 µM
21,"Cc1ccc(OC(F)F)c(NS(=O)(=O)c2ccc(C)c(N3CCN[C@H](C)C3)c2)c1 [Example 63, N-(2-Difluoromethoxy-5-methyl-phenyl)-4-methyl-3-((R)-3-methyl-piperazin-1-yl)-benzenesulfonamide hydrochloride]",< 0.01 µM
22,"COc1ccc(NS(=O)(=O)c2ccc(OC)c(N3CCN(C)CC3)c2)cc1OC(F)F [Example 38, N-(3-Difluoromethoxy-4-methoxy-phenyl)-4-methoxy-3-(4-methyl-piperazin-1-yl)-benzenesulfonamide hydrochloride]",< 0.01 µM
23,"COc1ccc(S(=O)(=O)Nc2cc(OC(F)F)ccc2C)cc1N1CCN(C)CC1 [Example 55, N-(5-Difluoromethoxy-2-methyl-phenyl)-4-methoxy-3-(4-methyl-piperazin-1-yl)-benzenesulfonamide hydrochloride]",< 0.01 µM
24,"COc1ccc(S(=O)(=O)Nc2ccc(C)c(OC(F)F)c2)cc1N1CCN(C)CC1 [Example 89, N-(3-Difluoromethoxy-4-methyl-phenyl)-4-methoxy-3-(4-methyl-piperazin-1-yl)-benzenesulfonamide hydrochloride]",< 0.01 µM
25,"CCc1ccc(S(=O)(=O)Nc2ccc(C)cc2OC(F)F)cc1N1CCNCC1 [Example 62, N-(2-Difluoromethoxy-4-methyl-phenyl)-4-ethyl-3-piperazin-1-yl-benzenesulfonamide hydrochloride]",< 0.01 µM
26,"COc1ccc(S(=O)(=O)Nc2ccc(F)cc2OC(F)F)cc1N1CCN(C)CC1 [Example 69, N-(2-Difluoromethoxy-4-fluoro-phenyl)-4-methoxy-3-(4-methyl-piperazin-1-yl)-benzenesulfonamide hydrochloride]",< 0.01 µM
27,"COc1ccc(S(=O)(=O)Nc2ccccc2OC(F)F)cc1N1CCN(C)CC1 [Example 37, N-(2-Difluoromethoxy-phenyl)-4-methoxy-3-(4-methyl-piperazin-1-yl)-benzenesulfonamide hydrochloride]",< 0.01 µM
28,"COc1ccc(S(=O)(=O)Nc2cc(Cl)ccc2OC(F)F)cc1N1CCN(C)CC1 [Example 53, N-(5-Chloro-2-difluoromethoxy-phenyl)-4-methoxy-3-(4-methyl-piperazin-1-yl)-benzenesulfonamide hydrochloride]",< 0.01 µM
